Experimental data published in patent publication US11731986B2 (Sanford Burnham Prebys Medical Discovery Institute, priority 2017, dated 2023).

What follows are molecules tested against T1, human LMPTP-A (Homo sapiens, UniProt P24666) (assay: Enzyme Assay of Inhibition of LMPTP-A (phosphatase assay, OMFP or pNPP substrate)). Conditions: Bis-Tris pH 6.0, 37° C.
T1 sequence (P24666 1-158): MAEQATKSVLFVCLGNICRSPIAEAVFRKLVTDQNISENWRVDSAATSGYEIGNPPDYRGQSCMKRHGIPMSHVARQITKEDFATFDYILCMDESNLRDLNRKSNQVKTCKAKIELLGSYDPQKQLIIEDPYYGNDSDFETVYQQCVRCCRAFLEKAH
Type: biochemical
Procedure, shortened: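 Buffer 50 mM Bis-Tris pH 6.0, 1 mM DTT, 0.01% Triton X-100, 37 °C; OMFP read continuously (485/525 nm) or pNPP stopped with NaOH, 405 nm. IC50 from concentration vs % activity. Selectivity: 40 μM compound with 0.4 mM OMFP or 5 mM pNPP; reversibility: 50 nM enzyme, 10 μM compound, 5 min, 100× dilution.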

Molecule	IC50 [nM]
CCN1CCC(CNC(=O)CCOc2ccc(-c3cc(N(CC)CCCN4CCCCC4)c4cnccc4n3)cc2)CC1 [3-(4-(4-(ethyl(3-(piperidin-1-yl)propyl)amino)-1,6-naphthyridin-2-yl)phenoxy)-N-((1-ethylpiperidin-4-yl)methyl)propanamide]	≥ 20000
CCN(CC)C(=O)c1ccc(-c2cc(NC3CCNCC3)c3cnccc3n2)cc1 [N,N-Diethyl-4-(4-(piperidin-4-ylamino)-1,6-naphthyridin-2-yl)benzamide]	1000 to 20000
O=C(O)/C=C/c1ccc(-c2cc(NCCCN3CCCCC3)c3cnccc3n2)s1 [(E)-3-(5-(4-(3-(Piperidin-1-yl)propylamino)-1,6-naphthyridin-2-yl)thiophen-2-yl)acrylic acid]	1000 to 20000
CCN1CCC(CNC(=O)COCc2ccc(-c3cc(NCCCN4CCCCC4)c4cnccc4n3)cc2)CC1 [N-((1-ethylpiperidin-4-yl)methyl)-2-(4-(4-(3-(piperidin-1-yl)propylamino)-1,6-naphthyridin-2-yl)benzyloxy)acetamide]	1000 to 20000
O=C(c1nc2ccc(-c3cc(NCCCN4CCCCC4)c4cnccc4n3)cc2s1)N1CCOCC1 [Morpholino(6-(4-(3-(piperidin-1-yl)propylamino)-1,6-naphthyridin-2-yl)benzo[d]thiazol-2-yl)methanone]	1000 to 20000
CCN(CC)C(=O)/C=C/c1ccc(-c2cc(NCCCN3CCCCC3)c3cnccc3n2)s1 [(E)-N,N-Diethyl-3-(5-(4-(3-(piperidin-1-yl)propylamino)-1,6-naphthyridin-2-yl)thiophen-2-yl)acrylamide]	≥ 20000
CC(CCN1CCCCC1)Nc1cc(-c2ccc3c(c2)cc(C(=O)NC2CCN(C)CC2)n3C)nc2ccncc12 (stereo not drawn) [1-Methyl-N-(1-methylpiperidin-4-yl)-5-(4-(4-(piperidin-1-yl)butan-2-ylamino)-1,6-naphthyridin-2-yl)-1H-indole-2-carboxamide]	1000 to 20000
CCN(CC)C(=O)c1ccc(-c2cc(NCCCN3CCCCC3)c3cnccc3n2)c(C(N)=O)c1 [N1,N1-diethyl-4-(4-((3-(piperidin-1-yl)propyl)amino)-1,6-naphthyridin-2-yl)isophthalamide]	1000 to 20000
CCN(CC)C(=O)c1ccc(-c2cc(NCCCN3CCOCC3)c3cnccc3n2)cc1 [N,N-Diethyl-4-(4-((3-morpholinopropyl)amino)-1,6-naphthyridin-2-yl)benzamide]	1000 to 20000
CN1CCN(CCCNC(=O)c2nc3cc(-c4cc(Nc5ccc(CN6CCCC6)cc5)c5cnccc5n4)ccc3[nH]2)CC1 [N-(3-(4-methylpiperazin-1-yl)propyl)-5-(4-((4-(pyrrolidin-1-ylmethyl)phenyl)amino)-1,6-naphthyridin-2-yl)-1H-benzo[d]imidazole-2-carboxamide]	≥ 20000
methyl-N-(1-methylpiperidin-4-yl)-5-(4-((3-(piperidin-1-yl)propyl)amino)-1,6-naphthyridin-2-yl)-1H-pyrrolo[3,2-b]pyridine-2-carboxamide	1000 to 20000
CCN(CC)C(=O)c1ccc(-c2cc(NCCCN3CCN(S(C)(=O)=O)CC3)c3cnccc3n2)cc1 [N,N-Diethyl-4-(4-((3-(4-(methylsulfonyl)piperazin-1-yl)propyl)amino)-1,6-naphthyridin-2-yl)benzamide]	1000 to 20000
CCN(CC)C(=O)c1ccc(-c2cc(NC3CCN(C)C3)c3cnccc3n2)cc1 (stereo not drawn) [N,N-Diethyl-4-(4-(1-methylpyrrolidin-3-ylamino)-1,6-naphthyridin-2-yl)benzamide]	1000 to 20000
CN1CCC(NC(=O)c2ccc(-c3cc(NC4CCN(C)CC4)c4cnccc4n3)cc2)CC1 [N-(1-Methylpiperidin-4-yl)-4-(4-((1-methylpiperidin-4-yl)amino)-1,6-naphthyridin-2-yl)benzamide]	1000 to 20000
CN1CCC(NC(=O)c2cc3cc(-c4cc(N(C)CCCN5CCCCC5)c5cnccc5n4)ccc3n2C)CC1 [1-methyl-5-(4-(methyl(3-(piperidin-1-yl)propyl)amino)-1,6-naphthyridin-2-yl)-N-(1-methylpiperidin-4-yl)-1H-indole-2-carboxamide]	1000 to 20000
CCN(CC)C(=O)c1ccc(-c2cc(NCCCN3CCCCC3)nc3ncccc23)cc1 [N,N-diethyl-4-(2-(3-(piperidin-1-yl)propylamino)-1,8-naphthyridin-4-yl)benzamide]	≥ 20000
CCN(CC)C(=O)c1ccc(-c2cc(NCCCN3CCS(=O)(=O)CC3)c3cnccc3n2)cc1 [4-(4-((3-(1,1-Dioxidothiomorpholino)propyl)amino)-1,6-naphthyridin-2-yl)-N,N-diethylbenzamide]	1000 to 20000
CCN(CC)C(=O)c1ccc(-c2cc(Nc3ccc(NCCOC)cc3)c3cnccc3n2)cc1 [N,N-Diethyl-4-(4-(4-(2-methoxyethylamino)phenylamino)-1,6-naphthyridin-2-yl)benzamide]	1000 to 20000
CN1CCC(NC(=O)COc2ccc(-c3cc(NCCCN4CCCCC4)c4cnccc4n3)cc2)CC1 [N-(1-methylpiperidin-4-yl)-2-(4-(4-(3-(piperidin-1-yl)propylamino)-1,6-naphthyridin-2-yl)phenoxy)acetamide]	≥ 20000
CCN(CC)C(=O)c1ccc(-c2cc(NCCCN3CCNCC3)c3cnccc3n2)cc1 [N,N-Diethyl-4-(4-((3-(piperazin-1-yl)propyl)amino)-1,6-naphthyridin-2-yl)benzamide]	1000 to 20000
CCN(CC)C(=O)c1nc2ccc(-c3cc(NCCCN4CCCCC4)c4cnccc4n3)cc2o1 [N,N-Diethyl-6-(4-(3-(piperidin-1-yl)propylamino)-1,6-naphthyridin-2-yl)benzo[d]oxazole-2-carboxamide]	1000 to 20000
CN1CCC(NC(=O)c2ccc(-c3cc(NC4CCNC4)c4cnccc4n3)cc2)CC1 (stereo not drawn) [N-(1-Methylpiperidin-4-yl)-4-(4-(pyrrolidin-3-ylamino)-1,6-naphthyridin-2-yl)benzamide]	1000 to 20000
COc1cc(-c2ccc3c(c2)cc(C(=O)NC2CCN(C)CC2)n3C)nc2ccncc12 [5-(4-methoxy-1,6-naphthyridin-2-yl)-1-methyl-N-(1-methylpiperidin-4-yl)-1H-indole-2-carboxamide]	≥ 20000
CCN(CC)C(=O)c1nc2ccc(-c3cc(NCCCN4CCCCC4)c4cnccc4n3)cc2s1 [N,N-Diethyl-6-(4-(3-(piperidin-1-yl)propylamino)-1,6-naphthyridin-2-yl)benzo[d]thiazole-2-carboxamide]	1000 to 20000

The remaining lines, values ahead:

IC50 [nM]	Molecule
1000 to 20000	CN1CCC(NC(=O)c2ccc(-c3cc(NC4CCNCC4)c4cnccc4n3)cc2)CC1 [N-(1-Methylpiperidin-4-yl)-4-(4-(piperidin-4-ylamino)-1,6-naphthyridin-2-yl)benzamide]
1000 to 20000	CN1CCC(CNC(=O)C#Cc2ccc(-c3cc(NCCCN4CCCCC4)c4cnccc4n3)cc2)CC1 [N-((1-methylpiperidin-4-yl)methyl)-3-(4-(4-((3-(piperidin-1-yl)propyl)amino)-1,6-naphthyridin-2-yl)phenyl)propiolamide]
≤ 1000	O=C(NCCCN1CCCCC1)c1nc2cc(-c3cc(Nc4ccc(CN5CCCC5)cc4)c4cnccc4n3)ccc2[nH]1 [N-(3-(piperidin-1-yl)propyl)-5-(4-((4-(pyrrolidin-1-ylmethyl)phenyl)amino)-1,6-naphthyridin-2-yl)-1H-benzo[d]imidazole-2-carboxamide]
≤ 1000	CN1CCC(CCNC(=O)COCc2ccc(-c3cc(NCCCN4CCCCC4)c4cnccc4n3)cc2)CC1 [N-(2-(1-methylpiperidin-4-yl)ethyl)-2-(4-(4-(3-(piperidin-1-yl)propylamino)-1,6-naphthyridin-2-yl)benzyloxy)acetamide]
≤ 1000	CN(C)CCNC(=O)c1nc2cc(-c3cc(Nc4ccc(CN5CCCC5)cc4)c4cnccc4n3)ccc2[nH]1 [N-(2-(dimethylamino)ethyl)-5-(4-((4-(pyrrolidin-1-ylmethyl)phenyl)amino)-1,6-naphthyridin-2-yl)-1H-benzo[d]imidazole-2-carboxamide]
1000 to 20000	CN1CCC(NC(=O)c2ccc(-c3cc(NC4CCN(C)C4)c4cnccc4n3)cc2)CC1 (stereo not drawn) [N-(1-Methylpiperidin-4-yl)-4-(4-((1-methylpyrrolidin-3-yl)amino)-1,6-naphthyridin-2-yl)benzamide]
≤ 1000	O=C(NCCc1ccncc1)c1nc2cc(-c3cc(NCCCN4CCCCC4)c4cnccc4n3)ccc2[nH]1 [5-(4-((3-(piperidin-1-yl)propyl)amino)-1,6-naphthyridin-2-yl)-N-(2-(pyridin-4-yl)ethyl)-1H-benzo[d]imidazole-2-carboxamide]
≤ 1000	O=C(c1cc2ccc(-c3cc(NCCCN4CCCCC4)c4cnccc4n3)cc2s1)N1CCNCC1 [Piperazin-1-yl(6-(4-(3-(piperidin-1-yl)propylamino)-1,6-naphthyridin-2-yl)benzo[b]thiophen-2-yl)methanone]
≤ 1000	CN1CCC(Nc2cc(-c3ccc4c(c3)cc(C(=O)N3CCN(C)CC3)n4C)nc3ccncc23)CC1 [(1-Methyl-5-(4-((1-methylpiperidin-4-yl)amino)-1,6-naphthyridin-2-yl)-1H-indol-2-yl)(4-methylpiperazin-1-yl)methanone]
≤ 1000	CO/N=C(\NC1CCN(C)CC1)c1ccc(-c2cc(NCCCN3CCCCC3)c3cnccc3n2)cc1 [(Z)-N′-methoxy-N-(1-methylpiperidin-4-yl)-4-(4-(3-(piperidin-1-yl)propylamino)-1,6-naphthyridin-2-yl)benzimidamide]
≤ 1000	O=C(NCCc1ccncc1)c1cc2ccc(-c3cc(NCCCN4CCCCC4)c4cnccc4n3)cc2[nH]1
≤ 1000	O=C(NC1CCNCC1)c1nc2cc(-c3cc(NCCCN4CCCCC4)c4cnccc4n3)ccc2[nH]1 [5-(4-((3-(piperidin-1-yl)propyl)amino)-1,6-naphthyridin-2-yl)-N-(piperidin-4-yl)-1H-benzo[d]imidazole-2-carboxamide]
